One assay concerns the target T1, NK-1 receptor (Homo sapiens, UniProt P25103).
T1 construct: endogenous in cells; host or cells: IM9 cells (human cell line), whole cells
In words: NK-1 Receptor Binding Assay (125I-labeled substance P, IM9 cells). The note with it: for IC50: inhibits fifty percent of binding of 125I-substance P to IM9 cells. The protocol:
The biological activity of the compounds of the present invention was evaluated employing an initial screening assay which rapidly and accurately measured the binding of the tested compound to known NK-1 and NK-2 receptor sites. Assays useful for evaluating tachykinin receptor antagonists are well known in the art.
NK-1 Receptor Binding Assay
Radioreceptor binding assays were performed using a derivative of a previously published protocol.
The IM9 cell line is a well-characterized and readily available human cell line.
The reaction was terminated by filtration through a glass fiber filter harvesting system using filters previously soaked for 20 minutes in 0.1% polyethylenimine. Specific binding of labeled substance P was determined in the presence of 20 nM unlabeled ligand.

The target of a further assay is T2, human NK-2 receptor (Homo sapiens, UniProt P21452).
T2 construct: expressed in transfected cells; host or cells: CHO-hNK-2R cells (CHO-derived), membrane preparation
T2 sequence (P21452 1-398): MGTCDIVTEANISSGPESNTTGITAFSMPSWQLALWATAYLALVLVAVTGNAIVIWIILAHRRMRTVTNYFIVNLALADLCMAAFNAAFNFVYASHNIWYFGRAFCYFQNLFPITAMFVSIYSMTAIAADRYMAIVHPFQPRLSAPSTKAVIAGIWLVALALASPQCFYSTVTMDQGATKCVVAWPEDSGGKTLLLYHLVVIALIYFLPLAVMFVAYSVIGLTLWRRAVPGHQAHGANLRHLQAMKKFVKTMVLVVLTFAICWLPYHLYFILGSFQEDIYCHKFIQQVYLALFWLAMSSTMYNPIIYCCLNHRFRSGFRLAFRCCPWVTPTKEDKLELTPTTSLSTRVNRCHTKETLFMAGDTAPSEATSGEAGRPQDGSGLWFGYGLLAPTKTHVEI
In words: NK-2 Receptor Binding Assay ([125I]iodohistidyl-neurokinin A, CHO-hNK-2R membranes). The note with it: for IC50: inhibits fifty percent of binding of [125I]iodohistidyl-neurokinin A to CHO-hNK-2R membranes; for NK-2 percent inhibition of binding: @ 10 μM. The method, then: The biological activity of the compounds of the present invention was evaluated employing an initial screening assay which rapidly and accurately measured the binding of the tested compound to known NK-1 and NK-2 receptor sites. Assays useful for evaluating tachykinin receptor antagonists are well known in the art. See. e.g., J. Jukic, et al., Life Sciences, 49:1463-1469 (1991); N. Kucharczyk, et al., Journal of Medicinal Chemistry, 36:1654-1661 (1993); N. Rouissi, et al., Biochemical and Biophysical Research Communications, 176:894-901 (1991).
NK-2 Receptor Binding Assay
The CHO-hNK-2R cells, a CHO-derived cell line transformed with the human NK-2 receptor, expressing about 400,000 such receptors per cell, were grown in 75 cm^2 flasks or roller bottles in minimal essential medium (alpha modification) with 10% fetal bovine serum. The gene sequence of the human NK-2 receptor is given in N. P. Gerard, et al., Journal of Biological Chemistry, 265:20455-20462 (1990).
For preparation of membranes, 30 confluent roller bottle cultures were dissociated by washing each roller bottle with 10 ml of Dulbecco's phosphate buffered saline (PBS) without calcium and magnesium, followed by addition of 10 ml of enzyme-free cell dissociation solution (PBS-based, from Specialty Media, Inc.). After an additional 15 minutes, the dissociated cells were pooled and centrifuged at 1,000 RPM for 10 minutes in a clinical centrifuge. Membranes were prepared by homogenization of the cell pellets in 300 ml 50 mM Tris buffer, pH 7.4 with a Tekma® homogenizer for 10-15 seconds, followed by centrifugation at 12,000 RPM (20,000×g) for 30 minutes using a Beckman JA-14® rotor. The pellets were washed once using the above procedure. and the final pellets were resuspended in 100-120 ml 50 mM Tris buffer, pH 7.4, and 4 ml aliquots stored frozen at −70° C. The protein concentration of this preparation was 2 mg/ml.
For the receptor binding assay, one 4-ml aliquot of the CHO-hNK-2R membrane preparation was suspended in 40 ml of assay buffer containing 50 mM Tris, pH 7.4, 3 mM manganese chloride, 0.02% bovine serum albumin (BSA) and 4 μg/ml chymostatin. A 200 μl volume of the homogenate (40 μg protein) was used per sample. The radioactive ligand was [^125I]iodohistidyl-neurokinin A (New England Nuclear, NEX-252), 2200 Ci/mmol. The ligand was prepared in assay buffer at 20 nCi per 100 μl; the final concentration in the assay was 20 pM. Non-specific binding was determined using 1 μM eledoisin. Ten concentrations of eledoisin from 0.1 to 1000 nM were used for a standard concentration-response curve.
All samples and standards were added to the incubation in 10 μl dimethylsulfoxide (DMSO) for screening (single dose) or in 5 μl DMSO for IC50 determinations. The order of additions for incubation was 190 or 195 μl assay buffer, 200 μl homogenate, 10 or 5 μl sample in DMSO, 100 μl radioactive ligand. The samples were incubated 1 hr at room temperature and then filtered on a 48 well Brandel cell harvester through GF/B filters which had been presoaked for two hours in 50 mM Tris buffer, pH 7.7, containing 0.5% BSA. The filter was washed 3 times with approximately 3 ml of cold 50 mm Tris buffer, pH 7.7. The filter circles were then punched into 12×75 mm polystyrene tubes and counted in a gamma counter.

This is an account of results in patent US6869957B1, “Non-peptide tachykinin receptor antagonists” (Eli Lilly and Company, priority 1993, dated 2005).

T1 sequence (P25103 whole entry): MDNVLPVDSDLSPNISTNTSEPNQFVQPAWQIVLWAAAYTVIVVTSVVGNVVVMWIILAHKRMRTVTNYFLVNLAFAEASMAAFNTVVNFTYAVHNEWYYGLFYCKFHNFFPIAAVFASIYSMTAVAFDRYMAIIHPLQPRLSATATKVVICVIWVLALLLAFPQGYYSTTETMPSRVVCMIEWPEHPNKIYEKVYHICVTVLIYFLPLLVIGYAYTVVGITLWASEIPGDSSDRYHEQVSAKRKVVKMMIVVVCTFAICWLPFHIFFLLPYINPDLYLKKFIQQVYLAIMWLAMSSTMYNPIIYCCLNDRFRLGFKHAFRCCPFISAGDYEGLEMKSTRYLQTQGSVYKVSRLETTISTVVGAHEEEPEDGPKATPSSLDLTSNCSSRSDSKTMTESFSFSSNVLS

By IC50 is commonly meant the point on the concentration scale where inhibition reaches its midpoint. Lower therefore signals inhibition by little substance. For the compound `COc1ccccc1CNCC(Cc1c[nH]c2cc(F)ccc12)NC(=O)CN1CCC(N2CCCCC2)CC1` (stereo not drawn) [Example 123], the results for the IC50 at NK-1 receptor and on human NK-2 receptor were 27 nM and 2500 nM, respectively.

As to `COc1ccccc1CN(CC(Cc1cn(C)c2ccccc12)NC(=O)CN1CCN(c2ccccc2)CC1)C(C)=O` (stereo not drawn) [Example 113], the IC50 at NK-1 receptor was 7.8 nM; on human NK-2 receptor it was 1200 nM. In the same order, the values of `COc1ccccc1CN(CC(Cc1c[nH]c2cc(C)ccc12)NC(=O)CN1CCC(N2CCCCC2)CC1)C(C)=O` (stereo not drawn) [Example 127] are 7.3 nM and 3000 nM.

Take `CC(=O)N(C)CC(Cc1c[nH]c2ccccc12)NC(c1ccccc1)(c1ccccc1)c1ccccc1` (stereo not drawn) [Example 164]: on NK-1 receptor (@ 5 μM), the “NK-1 percent inhibition of binding” value was found to be 0% @ 5 μM. At human NK-2 receptor, this compound registered an IC50 of 6200 nM.

Consider `COc1ccccc1CNCC(Cc1cccc2ccccc12)NC(=O)CN1CCN(c2ccccc2)CC1` (stereo not drawn) [Example 135], for which the “NK-1 percent inhibition of binding” value at NK-1 receptor (@ 1 μM) was found to be 75% @. The compound also yielded a 50% inhibitory concentration (IC50) on human NK-2 receptor of 430 nM. Consider `COc1ccccc1CN(CC(Cc1c[nH]c2ccccc12)NC(=O)CN1CCN(c2ccccc2)CC1)C(=O)CNC(=O)OC(C)(C)C` (stereo not drawn) [Example 36], for which the IC50 on NK-1 receptor was 10 nM; on human NK-2 receptor, 120 nM. `COc1ccccc1CN(CC(N)Cc1ccccc1)C(C)=O` (stereo not drawn) [Example 159]: the “NK-1 percent inhibition of binding” value at NK-1 receptor (@ 5 μM) stood at 54% @. Further, the “NK-2 percent inhibition of binding” value on human NK-2 receptor is 11 @ %. With `CCOC(=O)N1CCN(CC(=O)NC(Cc2c[nH]c3ccccc23)CN(Cc2ccccc2OC)C(C)=O)CC1` (stereo not drawn) [Example 80], the IC50 came out at 19 nM on NK-1 receptor and 3400 nM on human NK-2 receptor. The like results for `COc1ccccc1CN(CC(Cc1c[nH]c2ccccc12)NC(=O)CN1CCCCC1)C(C)=O` (stereo not drawn) [Example 60] were, in that order, 24 nM and 3900 nM. As to `CC(=O)NC(Cc1c[nH]c2ccccc12)CN(C(C)=O)C(C)c1ccccc1` (stereo not drawn) [Example 99], at NK-1 receptor (@ 1 μM), the “NK-1 percent inhibition of binding” value came to 15% @. For the same compound, the “NK-2 percent inhibition of binding” value at human NK-2 receptor was 54% @.

Regarding `COc1ccccc1CN(CC(Cc1c[nH]c2ccccc12)NC(=O)CN1CCCC1)C(C)=O` (stereo not drawn) [Example 59], the results for the IC50 at NK-1 receptor and at human NK-2 receptor were 7.3 nM and 3700 nM, respectively. As to `COc1ccccc1CN(CC(Cc1c[nH]c2ccccc12)NC(=O)CN1CCN(c2ccccc2)CC1)C(=O)CO` (stereo not drawn) [Example 33], the IC50 on NK-1 receptor worked out at 1.9 nM; on human NK-2 receptor it was 670 nM. On to `COc1ccccc1CN(CC(Cc1c[nH]c2ccccc12)NC(=O)CN1CCN(c2ccccc2)CC1)S(C)(=O)=O` (stereo not drawn) [Example 37], for which the IC50 is 4.2 nM at NK-1 receptor and 600 nM at human NK-2 receptor.

As to `COc1ccccc1CN(CC(CC1CN(C(C)=O)c2ccccc21)NC(=O)CN1CCN(c2ccccc2)CC1)C(C)=O` (mixture of isomers) [Example 145], the IC50 on NK-1 receptor was determined as 76 nM; at human NK-2 receptor, 1900 nM.

As to `CCCCN(CC(Cc1c[nH]c2ccccc12)NC(c1ccccc1)(c1ccccc1)c1ccccc1)C(C)=O` (stereo not drawn) [Example 165], the “NK-1 percent inhibition of binding” value on NK-1 receptor (@ 5 μM) was 3% @ 5 μM. The compound also came in with an IC50 at human NK-2 receptor of 10400 nM.

As for `COc1ccccc1CNCC(Cc1c[nH]c2ccc(Br)cc12)NC(=O)CN1CCN(c2ccccc2)CC1` (stereo not drawn) [Example 111], the IC50 was 1200 nM at NK-1 receptor and 490 nM on human NK-2 receptor. In the same order, the values of `COc1ccccc1CN(C[C@@H](Cc1c[nH]c2ccccc12)NC(=O)CN1CCN(C2CCCCC2)CC1)C(C)=O` [Example 75, (R)-1-[N-(2-methoxybenzyl)acetylamino]-3-(1H-indol-3-yl)-2-[N-(2-((4-cyclohexyl)piperazin-1-yl)acetyl)amino]propane] are 0.18 nM and 850 nM.

Turning to `COc1ccccc1CN(CC(Cc1c[nH]c2ccccc12)NC(=O)CN1CCCCCC1)C(C)=O` (stereo not drawn) [Example 61], the IC50 on NK-1 receptor worked out at 7.2 nM; on human NK-2 receptor, 940 nM. In the same order, the values of `COC(=O)CC(=O)N(Cc1ccccc1OC)CC(Cc1c[nH]c2ccccc12)NC(=O)CN1CCN(c2ccccc2)CC1` (stereo not drawn) [Example 30] are 1 nM and 680 nM.

On to `COc1ccccc1CNCC(CC1CNc2ccccc21)NC(=O)CN1CCN(c2ccccc2)CC1` (mixture of isomers) [Example 137], for which the IC50 was 220 nM at NK-1 receptor and 2700 nM at human NK-2 receptor. Consider `COc1ccccc1CN(C=O)CC(Cc1c[nH]c2ccccc12)NC(=O)CN1CCN(c2ccccc2)CC1` (stereo not drawn) [Example 24], for which the IC50 at NK-1 receptor turned out to be 1.2 nM; on human NK-2 receptor, 640 nM.

Take `COc1ccccc1CN(CC(Cc1c[nH]c2ccccc12)NC(=O)CCC(=O)c1ccccc1)C(C)=O` (racemic) [Example 95]: the IC50 stood at 9.6 nM at NK-1 receptor and 1000 nM on human NK-2 receptor. The compound `COc1ccccc1CNCC(Cc1c[nH]c2ccccc12)NC(=O)CN1CCC(N2CCCCC2)CC1` (stereo not drawn) [Example 44] gave an IC50 at NK-1 receptor of 25 nM. Further, the “NK-2 percent inhibition of binding” value at human NK-2 receptor is listed as 54 % at. As for `COc1ccccc1CN(CC(Cc1c[nH]c2ccccc12)NC(=O)CN1CCN(C(C)=O)CC1)C(C)=O` (stereo not drawn) [Example 79], the IC50 at NK-1 receptor turned out to be 38 nM; at human NK-2 receptor it was 6100 nM.

Consider `CC(=O)NC(Cc1c[nH]c2ccccc12)CN(CCc1ccccc1)C(=O)CN1CCN(c2ccccc2)CC1` (stereo not drawn) [Example 110], for which the IC50 at NK-1 receptor is 148 nM; on human NK-2 receptor it was 120 nM. On NK-1 receptor, `CC(NCC(Cc1c[nH]c2ccccc12)NC(=O)CN1CCC(N2CCCCC2)CC1)c1ccccc1` (stereo not drawn) [Example 102] gave an IC50 of 210 nM. Besides, at human NK-2 receptor, the “NK-2 percent inhibition of binding” value is recorded as 59% @. Regarding `COc1ccccc1CN(C[C@H](Cc1c[nH]c2ccccc12)NC(=O)CN1CCN(C2CCCCC2)CC1)C(C)=O` [Example 76], the IC50 at NK-1 receptor is 69 nM; on human NK-2 receptor it was 1400 nM.

`COc1ccccc1CN(CC(Cc1c[nH]c2ccccc12)NC(=O)CN1CCC(N2CCCCC2)CC1)C(C)=O` (racemic) [Example 50] yielded a half-inhibitory concentration (IC50) on human NK-2 receptor of 3400 nM. For `COc1ccccc1CN(CC(Cc1cn(C)c2ccccc12)NC(=O)CN1CCC(N2CCCCC2)CC1)C(C)=O` (stereo not drawn) [Example 124], the IC50 on NK-1 receptor came out at 0.93 nM; at human NK-2 receptor, 1400 nM.

For `CC(=O)NC1(c2ccccc2)CCN(CC(=O)NC(Cc2c[nH]c3ccccc23)CN(C)C(=O)c2ccccc2)CC1` (stereo not drawn) [Example 156], the “NK-1 percent inhibition of binding” value at NK-1 receptor (@ 5 μM) was found to be 78% @. This compound displayed an IC50 on human NK-2 receptor of 9500 nM. With `COc1ccccc1CN(CC(Cc1c[nH]c2ccccc12)NC(=O)CN1CCN(Cc2ccccc2)CC1)C(C)=O` (stereo not drawn) [Example 77], the IC50 on NK-1 receptor amounted to 0.88 nM; on human NK-2 receptor, 630 nM.

In the case of `COc1ccccc1CN(CC(Cc1c[nH]c2ccccc12)NC(=O)CN1CCN(c2ccccc2)CC1)C(C)=O` (racemic) [Example 17], on human NK-2 receptor, the IC50 stood at 1600 nM. `O=C(NCC(Cc1ccccc1)NC(=O)c1ccccc1)c1ccccc1` (stereo not drawn) [Example 163]: at human NK-2 receptor, the “NK-2 percent inhibition of binding” value was determined as 44% @.
